Consider nine compounds from US20100105770A1, “Therapeutic delivery of carbon monoxide” (priority 2006, published 2010).

Series [1] relates to deoxymyoglobin (deoxy-Mb). Kind of series: Release of CO from metal carbonyl complexes (myoglobin assay / CO electrode). The series is classed as physicochemical. The method, then: The release of CO from metal carbonyl complexes was assessed spectrophotometrically by measuring the conversion of deoxymyoglobin (deoxy-Mb) to carbonmonoxymyoglobin (MbCO). MbCO has a distinctive absorption spectrum between 500 and 600 nm, and changes at 540 nm were used to quantify the amount of CO liberated. Myoglobin solutions were prepared freshly by dissolving a known concentration of the protein in phosphate buffer, which was also made up to a known concentration and pH. Sodium dithionite (0.1%) was added to convert myoglobin to deoxy-Mb prior to each reading. The CORM was dissolved in the solvent specified in the solubility column of the table of FIGS. 1a-1k, before addition to the myoglobin solution.
The release of CO from metal carbonyl complexes was also detected using a prototype electrode purchased from World Precision Instrument (Stevenage, Herts, UK). The CO electrode is a membrane-covered amperometric sensor which has been designed on a basic operating principle similar to the nitric oxide (NO) sensor. In fact, the CO sensor can be connected to the ISO-NO Mark II meter for detection of the current signals providing that the poise potential is set to a different value (900 mV for CO as opposed to 860 mV for NO). In principle, CO diffuses through the gas permeable membrane and is then oxidized to CO2 on the working electrode. This oxidation will create a current whose magnitude can be related directly to the concentration of CO in solution. The CO sensor was used to generate standard curves and calculate the rates of CO release from a CORM compound at different pHs and temperatures. The electrode was immersed into the solutions at different pHs and equilibrated for 30 min prior to addition of the CORM compound. The experiments were maintained at the desired temperature using a Grant W6 thermostat (Cambridge). This method is described in the applicants' earlier publication WO 2005/114161.
Slow release rates (half-life >200 minutes) are indicated for the comparative compounds, while rapid release rates (half-life <50 minutes) were found for compounds within the invention. […] Compounds having three carbonyl ligands released CO slowly, as did compounds in which a carbon or a nitrogen atom of the ligand bond to the manganese. Slow release is also found for the compound (CORM 325) having Mn—Mn bonding.

Another series in a line: Solubility information. The series is classed as physicochemical. The text has this: Uncharged complexes, such as CORM 378, can be made water soluble by the presence of suitable ligands.
The test system of the next series is RAW264.7 macrophages. Kind of series: Anti-inflammatory action in LPS-stimulated RAW264.7 macrophages (nitrite, Griess method). The series is classed as cell-based, mouse. Particulars: 24 h, 10, 50 or 100 μM compound, LPS 1 μg/ml. The method, then:
(2) The anti-inflammatory action was measured in RAW264.7 macrophages incubated for 24 h with 10, 50 or 100 μM of each compound in the presence or absence of Lipopolysaccharide (LPS) (1 μg/ml). Nitrite was used as an indicator of inflammation. * indicates a reduction in inflammation detected at 100 μM; ** indicates a reduction in inflammation detected at 50 μM; *** indicates a reduction in inflammation detected at 10 μM; “None” indicates there was no effect of the compound on inflammation; N.P. indicates assay not performed.
Murine RAW264.7 monocyte macrophages were purchased from the European Collection of Cell Cultures (Salisbury, Wiltshire, UK) and cultured in Dulbecco's modified Eagle's medium (DMEM) supplemented' with 10% fetal bovine serum, 2 mM L-glutamine, 100 units ml^−1 penicillin and 0.1 mg ml^−1 streptomycin. […] Macrophages were exposed for 24 hr to LPS (1 μg ml^−) in the presence or absence of CORMs (10, 50 and 100 μM) and nitrite levels and cytotoxicity were determined at the end of the incubation. Nitrite levels were determined using the Griess method as previously described (Foresti et al. J. Biol. Chem. 272, 18411-18417, (1997)). […] The Griess reagent was added to each well to begin the reaction, the plate was shaken for 10 min and the absorbance read at 550 nm on a Molecular Devices VERSAmax plate reader. […]
In general terms: The Griess reaction detects nitrite, a stable product of nitric oxide.

In another series the test system is isolated aortic rings. Nature of the series: Vasorelaxation of pre-contracted isolated rat aortic rings. Particulars: for Contraction of pre-contracted aortic rings after addition of compound: varying concentrations, FIG. 3(a), 3(b). Also noted: species or system Sprague-Dawley rats. As for the experimental part:
(3) The experiments using the isolated aortic rings were conducted to assess the extent of vasorelaxation. One hundred micromolar (100 μM) of each compound were added to a pre-contracted ring and vasorelaxation was assessed as a percentage of the initial contraction, which was expressed as good (+) or very good (++).
Vasodilatation data for CORM 371 and CORM 376 was measured as described previously by the inventors in their earlier publication, WO 2004/045599. This is described in more detail below.
The method for the preparation of isolated aortic rings has been previously described (Sammut et al Br J Pharmacol 125: 1437-1444, 1998; Motterlini et al Circ Res 90: E17-E24, 2002). The thoracic aorta was isolated from Sprague-Dawley rats (350-450 g) and flushed with cold Krebs-Henseleit buffer (4° C., pH 7.4) containing (in mM): 118 NaCl, 4.7 KCl, […], 1.2 MgSO4.7H2O, 22 NaHCO3, 11 Glucose, 0.03 K^+EDTA, 2.5 CaCl2 and supplemented with 10 μM indomethacin. Each aorta was trimmed of adventitial tissue and ring, sections (˜3 mm length) were produced from the mid aortic segment. The rings were then mounted between two stainless steel hooks in 9-mL organ baths containing Krebs-Henseleit buffer which was maintained at 37° C. and continuously gassed with 95% O2-5% CO2. One hook was attached to a Grass FT03 isometric force transducer whilst the other was anchored to a sledge for regulation of the resting tension of the aortic ring. The rings were initially equilibrated for 30 min under a resting tension of 2 g which was previously determined to be optimal. Continuous recording of tension was made on a Grass 7D polygraph (Grass Instruments, Quincy, Mass.) in combination with a Biopac MP100 system using AcqKnowledge™ software (Linton Instruments, Norfolk, UK). Before each protocol was carried out, rings were contracted with a standard dose of KCl (100 mM) in order to provide an internal reference and to control for variability in contractile responsiveness between tissues. The relaxation response to CORM-3 (25 μM) in the presence or absence of YC-1 (5 μM final concentration, 30 min pre-incubation) was assessed in aortic rings pre-contracted with phenylephrine (1 μmol/L).

Consider `O=[C]=[Mn]([Br])(=[C]=O)(=[C]=O)(=[C]=O)=[C]=O` [CORM 309, [MnBr(CO)5]], for which the “CO release rate (in words)” value in series [1] is on record as “much longer CO release times”.
On the same count and under the same terms, to `O=[C]=[Mn]([I])(=[C]=O)(=[C]=O)(=[C]=O)=[C]=O` [CORM 310, [MnI(CO)5]] belongs “much longer CO release times”.
Same read-out and setting: to `[C-]#[O+].[C-]#[O+].[C-]#[O+].[C-]#[O+].[C-]#[O+].[Cl][Mn]` [CORM 318, [MnCl(CO)5]] belongs “much longer CO release times”; to `[C-]#[O+].[C-]#[O+].[C-]#[O+].[C-]#[O+].[C-]#[O+].[C-]#[O+].[C-]#[O+].[C-]#[O+].c1ccc([PH]([Mn][Mn][PH](c2ccccc2)(c2ccccc2)c2ccccc2)(c2ccccc2)c2ccccc2)cc1` [CORM 325, [Mn(CO)4(PPh3)]2], “Slow release”.
For the compound `OCCN(CCO)C(=S)[S-].[C-]#[O+].[C-]#[O+].[C-]#[O+].[C-]#[O+].[Mn+]` [CORM 378, Mn(CO)4(η^2-S2CN{CH2CH2OH}2)], the Solubility in water entry in “Solubility information” is “water soluble”.
In the case of `C[N+](C)(C)C.O=C([O-])c1ccccc1.O=C([O-])c1ccccc1.O=C([O-])c1ccccc1.[C-]#[O+].[C-]#[O+].[C-]#[O+].[C-]#[O+].[C-]#[O+].[C-]#[O+].[Mn+].[Mn+]` [CORM 379, [Me4N][Mn2(CO)6(benzoate)3]], the “CO release rate (in words)” value in series [1] was “rapid CO release”. The “Anti-inflammatory action (nitrite as indicator of inflammation)” value in the series on RAW264.7 macrophages is on record as “did not do so”.
Turning to `CC(=O)[S-].CC(=O)[S-].C[N+](C)(C)C.[C-]#[O+].[C-]#[O+].[C-]#[O+].[C-]#[O+].[Mn+]` [CORM-371, [Me4N][Mn(CO)4(thioacetate)2]], in the series on isolated aortic rings, the “Vasodilator activity in the aortic rings model” value was “good vasodilators” and the “Contraction of pre-contracted aortic rings after addition of compound” value is given as “concentration-dependent decrease in contraction”.
Take “[K][(OC)3Mn(μ-OCOCH3)3Mn(CO)3] [CORM-376]”: in the series on isolated aortic rings, the “Vasodilator activity in the aortic rings model” value is on record as “good vasodilators” and the “Contraction of pre-contracted aortic rings after addition of compound” value is reported as “concentration-dependent decrease in contraction”. For the same compound, in the series on isolated aortic rings (glibenclimide at two different concentrations, FIG. 3(c)), the “Dilatation in presence of glibenclimide (inhibition of ATP-dependent K+ channels)” value is “did not affect”. Moreover, the “Vasorelaxation in presence of guanylate cyclase inhibitor ODQ” value in the series on isolated aortic rings (with ODQ, FIG. 3(c)) is “significantly prevented”.
Take [Me4N][Mn(CO)4(Malonate)] [CORM 350]: the “CO release rate (in words)” value in series [1] is listed as “rapid CO release”. Besides, in the series with RAW264.7 macrophages, the “Anti-inflammatory action (nitrite as indicator of inflammation)” value was “did not do so”.
